Data taken from US10683269B2 (MISSION THERAPEUTICS LIMITED, priority 2016, dated 2020).

Biological target: T1, USP7 (Homo sapiens, UniProt Q93009)
T1 construct: The USP7 construct was PCR amplified and cloned into a pFLAG-CMV-6a vector (Sigma-Aldrich) with an N-terminal FLAG tag; made in house; host or cells: HEK293T
Experiment: USP7 biochemical IC50 assay (fluorescence polarisation, TAMRA labelled peptide linked to ubiquitin via an iso-peptide bond)
Settings: 30 min pre-incubation of enzyme and compound, read after 2 hr incubation at room temperature, read-out: IC50 range
How it was run: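 Fluorescence polarisation at 540 nm excitation/590 nm emission, read immediately and after 2 hr at room temperature, following addition of 50 nM TAMRA-labelled iso-peptide ubiquitin substrate.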

T1 sequence (Q93009 whole entry): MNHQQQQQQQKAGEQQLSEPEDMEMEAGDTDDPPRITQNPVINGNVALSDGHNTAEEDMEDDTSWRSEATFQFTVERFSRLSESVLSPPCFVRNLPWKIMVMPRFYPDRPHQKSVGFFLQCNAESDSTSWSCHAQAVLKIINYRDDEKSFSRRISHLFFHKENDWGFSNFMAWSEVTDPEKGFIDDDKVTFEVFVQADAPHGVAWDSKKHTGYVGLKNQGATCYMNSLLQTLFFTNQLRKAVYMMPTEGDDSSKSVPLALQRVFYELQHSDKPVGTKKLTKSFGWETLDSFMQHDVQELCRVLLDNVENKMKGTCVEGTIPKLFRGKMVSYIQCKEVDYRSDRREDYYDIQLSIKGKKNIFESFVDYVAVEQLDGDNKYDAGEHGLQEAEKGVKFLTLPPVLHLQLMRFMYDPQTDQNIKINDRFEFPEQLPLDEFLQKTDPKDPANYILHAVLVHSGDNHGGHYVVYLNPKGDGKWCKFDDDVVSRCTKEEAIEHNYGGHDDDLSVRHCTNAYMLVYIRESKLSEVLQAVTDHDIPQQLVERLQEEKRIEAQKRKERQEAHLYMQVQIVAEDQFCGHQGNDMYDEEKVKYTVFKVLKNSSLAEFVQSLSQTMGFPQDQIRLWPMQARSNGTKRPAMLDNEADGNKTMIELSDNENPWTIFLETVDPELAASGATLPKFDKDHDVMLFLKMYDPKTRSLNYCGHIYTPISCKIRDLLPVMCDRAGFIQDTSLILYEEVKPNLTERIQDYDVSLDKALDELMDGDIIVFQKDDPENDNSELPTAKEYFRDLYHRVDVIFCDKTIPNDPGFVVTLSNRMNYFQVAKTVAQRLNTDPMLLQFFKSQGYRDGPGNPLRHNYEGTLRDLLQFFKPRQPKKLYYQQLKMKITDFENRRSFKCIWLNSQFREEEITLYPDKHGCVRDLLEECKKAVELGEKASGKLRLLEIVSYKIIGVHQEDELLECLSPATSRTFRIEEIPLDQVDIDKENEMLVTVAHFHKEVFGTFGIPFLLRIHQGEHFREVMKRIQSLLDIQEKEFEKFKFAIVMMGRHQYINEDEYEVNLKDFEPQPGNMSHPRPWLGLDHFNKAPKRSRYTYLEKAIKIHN

N#CN1Cc2nc(NCCO)nc(N3CCC(Oc4ccccc4)CC3)c2C1 [Example 206, 2-((2-hydroxyethyl)amino)-4-(4-phenoxypiperidin-1-yl)-5,7-dihydro-6H-pyrrolo[3,4-d]pyrimidine-6-carbonitrile]
IC50: 1 to 10 µM

N#CN1Cc2nc(N)nc(N3CCC(Oc4ccccc4)CC3)c2C1 [Example 207, 2-amino-4-(4-phenoxypiperidin-1-yl)-5,7-dihydro-6H-pyrrolo[3,4-d]pyrimidine-6-carbonitrile]
IC50: 10 to 30 µM

N#Cc1ccc(-c2nc(NCCO)nc3c2CN(C#N)C3)cc1 [Example 208, 4-(4-cyanophenyl)-2-((2-hydroxyethyl)amino)-5,7-dihydro-6H-pyrrolo[3,4-d]pyrimidine-6-carbonitrile]
IC50: 10 to 30 µM

N#CN1Cc2nc(NCCO)nc(-c3ccc(F)c(F)c3)c2C1 [Example 209, 4-(3,4-difluorophenyl)-2-((2-hydroxyethyl)amino)-5,7-dihydro-6H-pyrrolo[3,4-d]pyrimidine-6-carbonitrile]
IC50: 1 to 10 µM

CC(=O)Nc1cccc(-c2nc(NCCO)nc3c2CN(C#N)C3)c1 [Example 210, N-(3-(6-cyano-2-((2-hydroxyethyl)amino)-6,7-dihydro-5H-pyrrolo[3,4-d]pyrimidin-4-yl)phenyl)acetamide]
IC50: 1 to 10 µM

COc1ccc(-c2nc(NCCO)nc3c2CN(C#N)C3)cc1 [Example 211, 2-((2-hydroxyethyl)amino)-4-(4-methoxyphenyl)-5,7-dihydro-6H-pyrrolo[3,4-d]pyrimidine-6-carbonitrile]
IC50: < 1 µM

CN1CCN(c2ccc(-c3nc(NCCO)nc4c3CN(C#N)C4)cc2)CC1 [Example 212, 2-((2-hydroxyethyl)amino)-4-(4-(4-methylpiperazin-1-yl)phenyl)-5,7-dihydro-6H-pyrrolo[3,4-d]pyrimidine-6-carbonitrile]
IC50: 1 to 10 µM

CN(C)Cc1cc2c(c(-c3ccccc3)c1)CN(C#N)C2 [Example 213, 6-((dimethylamino)methyl)-4-phenylisoindoline-2-carbonitrile]
IC50: 1 to 10 µM

CC(=O)NCc1cc2c(c(-c3ccccc3)c1)CN(C#N)C2 [Example 214, N-((2-cyano-7-phenylisoindolin-5-yl)methyl)acetamide]
IC50: 1 to 10 µM

COCCc1cc2c(c(-c3ccccc3)c1)CN(C#N)C2 [Example 215, 6-(2-methoxyethyl)-4-phenylisoindoline-2-carbonitrile]
IC50: 1 to 10 µM

CS(=O)(=O)Cc1cc2c(c(-c3ccc(C#N)cc3)c1)CN(C#N)C2 [Example 216, 4-(4-cyanophenyl)-6-((methylsulfonyl)methyl)isoindoline-2-carbonitrile]
IC50: 1 to 10 µM

CC(=O)NCc1cc2c(c(-c3ccc(C#N)cc3)c1)CN(C#N)C2 [Example 217, N-((2-cyano-7-(4-cyanophenyl)isoindolin-5-yl)methyl)acetamide]
IC50: 1 to 10 µM

CC(=O)N(C)Cc1cc2c(c(-c3ccc(C#N)cc3)c1)CN(C#N)C2 [Example 218, N-((2-cyano-7-(4-cyanophenyl)isoindolin-5-yl)methyl)-N-methylacetamide]
IC50: 1 to 10 µM

N#Cc1ccc(-c2cc(CNC(=O)C3CCOCC3)cc3c2CN(C#N)C3)cc1 [Example 219, N-((2-cyano-7-(4-cyanophenyl)isoindolin-5-yl)methyl)tetrahydro-2H-pyran-4-carboxamide]
IC50: 1 to 10 µM

N#Cc1ccc(-c2cc(CNC(=O)C3CCS(=O)(=O)CC3)cc3c2CN(C#N)C3)cc1 [Example 220, N-((2-cyano-7-(4-cyanophenyl)isoindolin-5-yl)methyl)tetrahydro-2H-thiopyran-4-carboxamide 1,1-dioxide]
IC50: 1 to 10 µM

Cn1cc(C(=O)NCc2cc3c(c(-c4ccc(C#N)cc4)c2)CN(C#N)C3)cn1 [Example 221, N-((2-cyano-7-(4-cyanophenyl)isoindolin-5-yl)methyl)-1-methyl-1H-pyrazole-4-carboxamide]
IC50: < 1 µM

CS(=O)(=O)NCc1cc2c(c(-c3ccc(C#N)cc3)c1)CN(C#N)C2 [Example 222, N-((2-cyano-7-(4-cyanophenyl)isoindolin-5-yl)methyl)methanesulfonamide]
IC50: 1 to 10 µM

CN(C)C(=O)NCc1cc2c(c(-c3ccc(C#N)cc3)c1)CN(C#N)C2 [Example 223, 3-((2-cyano-7-(4-cyanophenyl)isoindolin-5-yl)methyl)-1,1-dimethylurea]
IC50: 1 to 10 µM

CC(C)OC(=O)NCc1cc2c(c(-c3ccc(C#N)cc3)c1)CN(C#N)C2 [Example 224, isopropyl ((2-cyano-7-(4-cyanophenyl)isoindolin-5-yl)methyl)carbamate]
IC50: 1 to 10 µM

CC(=O)NCc1cc2c(c(-c3ccccc3C#N)c1)CN(C#N)C2 [Example 225, N-((2-cyano-7-(2-cyanophenyl)isoindolin-5-yl)methyl)acetamide]
IC50: 1 to 10 µM

CC(=O)NCc1cc2c(c(-c3ccc(C#N)cc3C#N)c1)CN(C#N)C2 [Example 226, N-((2-cyano-7-(2,4-dicyanophenyl)isoindolin-5-yl)methyl)acetamide]
IC50: 1 to 10 µM

CNC(=O)NCc1cc2c(c(-c3ccc(C#N)cc3)c1)CN(C#N)C2 [Example 227, 1-((2-cyano-7-(4-cyanophenyl)isoindolin-5-yl)methyl)-3-methylurea]
IC50: < 1 µM

CNC(=O)NCc1cc2c(c(-c3ccc(C#N)cc3C#N)c1)CN(C#N)C2 [Example 228, 1-((2-cyano-7-(2,4-dicyanophenyl)isoindolin-5-yl)methyl)-3-methylurea]
IC50: 1 to 10 µM

CNC(=O)NCc1cc2c(c(-c3ccccc3C#N)c1)CN(C#N)C2 [Example 229, 1-((2-cyano-7-(2-cyanophenyl)isoindolin-5-yl)methyl)-3-methylurea]
IC50: 1 to 10 µM

N#Cc1ccc(-c2cc(CNc3ccn[nH]3)cc3c2CN(C#N)C3)cc1 [Example 230, 6-(((1H-pyrazol-5-yl)amino)methyl)-4-(4-cyanophenyl)isoindoline-2-carbonitrile]
IC50: < 1 µM

N#Cc1cc2c(c(-c3ccccc3C(N)=O)c1)CN(C#N)C2 [Example 231, 2-(2,6-dicyanoisoindolin-4-yl)benzamide]
IC50: 1 to 10 µM

CN(C)C(=O)c1cc2c(c(-c3ccc(C#N)cc3)c1)CN(C#N)C2 [Example 232, 2-cyano-7-(4-cyanophenyl)-N,N-dimethylisoindoline-5-carboxamide]
IC50: 1 to 10 µM

N#Cc1ccc(-c2cc(C(N)=O)cc3c2CN(C#N)C3)c(C#N)c1 [Example 233, 2-cyano-7-(2,4-dicyanophenyl)isoindoline-5-carboxamide]
IC50: 1 to 10 µM

COc1ccc(C#N)c(-c2cc(C(N)=O)cc3c2CN(C#N)C3)c1 [Example 234, 2-cyano-7-(2-cyano-5-methoxyphenyl)isoindoline-5-carboxamide]
IC50: 1 to 10 µM

N#Cc1cc(F)ccc1-c1cc(C(N)=O)cc2c1CN(C#N)C2 [Example 235, 2-cyano-7-(2-cyano-4-fluorophenyl)isoindoline-5-carboxamide]
IC50: 1 to 10 µM

N#Cc1ccc(-c2cc(C(=O)N3CCS(=O)(=O)CC3)cc3c2CN(C#N)C3)cc1 [Example 236, 4-(4-cyanophenyl)-6-(1,1-dioxidothiomorpholine-4-carbonyl)isoindoline-2-carbonitrile]
IC50: 1 to 10 µM

CNC(=O)c1cc2c(c(-c3ccc(C#N)cc3)c1)CN(C#N)C2 [Example 237, 2-cyano-7-(4-cyanophenyl)-N-methylisoindoline-5-carboxamide]
IC50: 1 to 10 µM

N#Cc1ccc(-c2cc(C(=O)NC3CCOCC3)cc3c2CN(C#N)C3)cc1 [Example 238, 2-cyano-7-(4-cyanophenyl)-N-(tetrahydro-2H-pyran-4-yl)isoindoline-5-carboxamide]
IC50: 1 to 10 µM

CNC(=O)c1cc2c(c(-c3ccc(C#N)cc3C#N)c1)CN(C#N)C2 [Example 239, 2-cyano-7-(2,4-dicyanophenyl)-N-methylisoindoline-5-carboxamide]
IC50: 1 to 10 µM

CNC(=O)c1cc2c(c(-c3ccc(F)cc3)c1)CN(C#N)C2 [Example 240, 2-cyano-7-(4-fluorophenyl)-N-methylisoindoline-5-carboxamide]
IC50: < 1 µM

N#Cc1ccccc1-c1cc(C(N)=O)cc2c1CN(C#N)C2 [Example 241, 2-cyano-7-(2-cyanophenyl)isoindoline-5-carboxamide]
IC50: 1 to 10 µM

CS(=O)(=O)Nc1cc2c(c(-c3ccccc3C#N)c1)CN(C#N)C2 [Example 242, N-(2-cyano-7-(2-cyanophenyl)isoindolin-5-yl)methanesulfonamide]
IC50: 1 to 10 µM

CS(=O)(=O)Nc1cc2c(c(-c3ccc(C#N)cc3C#N)c1)CN(C#N)C2 [Example 243, N-(2-cyano-7-(2,4-dicyanophenyl)isoindolin-5-yl)methanesulfonamide]
IC50: 1 to 10 µM

CS(=O)(=O)Nc1cc2c(c(-c3ccc(C#N)cc3)c1)CN(C#N)C2 [Example 244, N-(2-cyano-7-(4-cyanophenyl)isoindolin-5-yl)methanesulfonamide]
IC50: 1 to 10 µM

COc1ccc(C#N)c(-c2cc(NS(C)(=O)=O)cc3c2CN(C#N)C3)c1 [Example 245, N-(2-cyano-7-(2-cyano-5-methoxyphenyl)isoindolin-5-yl)methanesulfonamide]
IC50: 1 to 10 µM

N#CN1Cc2nc(NCC3CCOCC3)cc(-c3ccc(F)cc3)c2C1 [Example 246, 4-(4-fluorophenyl)-2-(((tetrahydro-2H-pyran-4-yl)methyl)amino)-5,7-dihydro-6H-pyrrolo[3,4-b]pyridine-6-carbonitrile]
IC50: 1 to 10 µM

N#CN1Cc2nc(NCc3ccccn3)cc(-c3ccc(F)cc3)c2C1 [Example 247, 4-(4-fluorophenyl)-2-((pyridin-2-ylmethyl)amino)-5,7-dihydro-6H-pyrrolo[3,4-b]pyridine-6-carbonitrile]
IC50: 1 to 10 µM

Cn1nccc1CNc1cc(-c2ccc(F)cc2)c2c(n1)CN(C#N)C2 [Example 248, 4-(4-fluorophenyl)-2-(((1-methyl-1H-pyrazol-5-yl)methyl)amino)-5,7-dihydro-6H-pyrrolo[3,4-b]pyridine-6-carbonitrile]
IC50: < 1 µM
